Tests used:
[1] = molecular target: T1, JAK2 (Homo sapiens, UniProt O60674); assay: Recombinant Human JAK2 Kinase Assay (TRF); format: biochemical; details: JAK2 Kinase Inhibition; read-out: JAK2 Potency
T1 construct: host or cells: baculovirus expression system
How it was run: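 Kinase activity of baculovirus-expressed JAK2 is followed on a surface-immobilised biotinylated peptide, with the reaction run for 20 min at room temperature in buffer containing 0.2 μM ATP and manganese. Phosphorylation is read with Eu-N1 PY100 antibody.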

[2] = molecular target: T2, ALK (Homo sapiens, UniProt Q9UM73); assay: ALK Kinase Assay (ELISA/TRF, PLC-γ substrate); format: biochemical; details: ALK Kinase Inhibition; read-out: ALK Potency
T2 construct: host or cells: baculovirus expression system
How it was run: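 IC50 values derive from percent inhibition plotted against log10 compound concentration and fitted to a variable-slope sigmoidal equation. The underlying reaction used 30 ng/ml ALK acting on immobilized PLC-γ (10 μg/mL in TBS) at 37° C for 15 minutes, read with Eu-N1 PT66 antibody.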

T2 sequence (Q9UM73 19-1620): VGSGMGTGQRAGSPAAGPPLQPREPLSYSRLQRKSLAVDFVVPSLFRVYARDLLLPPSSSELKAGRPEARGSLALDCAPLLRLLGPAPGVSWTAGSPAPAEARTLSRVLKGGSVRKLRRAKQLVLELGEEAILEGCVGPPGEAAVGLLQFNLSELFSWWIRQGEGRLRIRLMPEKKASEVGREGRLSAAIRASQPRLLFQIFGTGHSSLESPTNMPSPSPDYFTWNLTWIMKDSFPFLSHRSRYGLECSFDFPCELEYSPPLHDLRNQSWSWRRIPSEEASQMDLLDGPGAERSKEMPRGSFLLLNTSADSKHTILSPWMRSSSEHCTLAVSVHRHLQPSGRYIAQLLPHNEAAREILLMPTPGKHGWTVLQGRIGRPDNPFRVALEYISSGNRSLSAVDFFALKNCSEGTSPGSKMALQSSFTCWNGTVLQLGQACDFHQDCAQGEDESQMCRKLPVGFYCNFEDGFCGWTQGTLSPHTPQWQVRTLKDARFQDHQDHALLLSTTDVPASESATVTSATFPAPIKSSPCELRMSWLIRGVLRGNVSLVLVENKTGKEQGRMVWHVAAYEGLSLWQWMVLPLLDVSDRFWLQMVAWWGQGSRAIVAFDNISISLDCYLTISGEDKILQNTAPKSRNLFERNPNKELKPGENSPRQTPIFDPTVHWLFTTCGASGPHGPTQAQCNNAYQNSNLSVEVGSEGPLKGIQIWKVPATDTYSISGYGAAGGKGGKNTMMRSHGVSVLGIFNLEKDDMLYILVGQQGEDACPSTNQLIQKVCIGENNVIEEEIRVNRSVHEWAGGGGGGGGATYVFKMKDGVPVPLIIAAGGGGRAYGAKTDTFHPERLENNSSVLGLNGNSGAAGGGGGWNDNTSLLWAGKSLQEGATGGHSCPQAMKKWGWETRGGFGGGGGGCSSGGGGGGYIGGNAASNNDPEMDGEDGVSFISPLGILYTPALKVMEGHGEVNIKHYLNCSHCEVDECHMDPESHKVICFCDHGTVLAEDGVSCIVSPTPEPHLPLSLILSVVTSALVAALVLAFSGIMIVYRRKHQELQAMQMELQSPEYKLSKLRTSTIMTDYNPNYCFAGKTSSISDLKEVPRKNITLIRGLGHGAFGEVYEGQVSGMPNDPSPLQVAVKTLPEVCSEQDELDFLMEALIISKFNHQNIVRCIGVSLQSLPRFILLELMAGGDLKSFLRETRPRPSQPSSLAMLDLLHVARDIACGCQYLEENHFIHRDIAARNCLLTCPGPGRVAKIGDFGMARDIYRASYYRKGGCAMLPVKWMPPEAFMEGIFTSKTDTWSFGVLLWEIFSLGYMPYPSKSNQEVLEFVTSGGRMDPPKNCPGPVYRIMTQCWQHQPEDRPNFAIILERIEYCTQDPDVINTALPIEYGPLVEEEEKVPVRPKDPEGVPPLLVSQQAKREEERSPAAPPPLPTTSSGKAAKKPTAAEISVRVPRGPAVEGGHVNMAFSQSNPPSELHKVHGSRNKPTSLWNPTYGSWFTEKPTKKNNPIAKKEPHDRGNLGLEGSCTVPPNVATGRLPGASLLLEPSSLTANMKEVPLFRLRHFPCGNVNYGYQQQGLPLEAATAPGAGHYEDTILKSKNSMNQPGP
T1 sequence (O60674 whole entry): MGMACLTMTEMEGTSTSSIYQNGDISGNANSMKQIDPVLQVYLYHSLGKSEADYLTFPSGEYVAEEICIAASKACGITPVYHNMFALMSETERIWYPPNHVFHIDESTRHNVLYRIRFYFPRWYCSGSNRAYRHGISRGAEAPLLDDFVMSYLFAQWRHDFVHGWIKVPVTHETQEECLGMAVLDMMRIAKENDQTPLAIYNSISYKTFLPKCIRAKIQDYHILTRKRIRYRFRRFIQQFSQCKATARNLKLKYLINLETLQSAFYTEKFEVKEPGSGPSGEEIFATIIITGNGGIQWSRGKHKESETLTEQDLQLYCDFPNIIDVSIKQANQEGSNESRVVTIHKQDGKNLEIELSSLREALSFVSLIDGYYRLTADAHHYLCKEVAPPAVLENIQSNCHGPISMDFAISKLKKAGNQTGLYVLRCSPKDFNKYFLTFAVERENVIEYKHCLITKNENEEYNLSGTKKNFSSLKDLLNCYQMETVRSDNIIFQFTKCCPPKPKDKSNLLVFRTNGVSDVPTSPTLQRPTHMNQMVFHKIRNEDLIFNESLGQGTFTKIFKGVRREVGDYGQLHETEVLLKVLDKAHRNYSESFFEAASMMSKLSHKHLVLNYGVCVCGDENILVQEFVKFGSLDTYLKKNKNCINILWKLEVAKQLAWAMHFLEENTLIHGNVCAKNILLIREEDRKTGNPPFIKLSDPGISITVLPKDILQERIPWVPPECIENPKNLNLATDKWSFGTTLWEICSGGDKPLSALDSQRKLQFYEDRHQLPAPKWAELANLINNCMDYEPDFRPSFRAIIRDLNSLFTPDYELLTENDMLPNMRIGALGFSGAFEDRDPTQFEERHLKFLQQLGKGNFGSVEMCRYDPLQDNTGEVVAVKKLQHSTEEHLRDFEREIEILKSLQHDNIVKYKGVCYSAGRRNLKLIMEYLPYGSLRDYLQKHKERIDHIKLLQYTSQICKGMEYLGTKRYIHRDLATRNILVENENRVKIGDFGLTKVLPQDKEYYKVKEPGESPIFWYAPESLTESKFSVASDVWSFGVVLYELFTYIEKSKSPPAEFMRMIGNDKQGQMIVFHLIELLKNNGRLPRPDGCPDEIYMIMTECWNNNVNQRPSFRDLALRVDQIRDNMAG

Compound	IC50 [1]	IC50 [2]
CS(=O)(=O)c1cccc(-c2ccc3cnc(Nc4ccc(N5CCN(CCO)CC5)cc4)nn23)c1 [Example 95, 2-(4-{4-[7-(3-Methanesulfonyl-phenyl)-pyrrolo[2,1-f][1,2,4]triazin-2-ylamino]-phenyl}-piperazin-1-yl)-ethanol]	< 0.1 µM	0.1 to 1 µM
CS(=O)(=O)c1cccc(-c2ccc3cnc(Nc4ccc(N5CCC(CO)CC5)cc4)nn23)c1 [Example 96, (1-{4-[7-(3-Methanesulfonyl-phenyl)-pyrrolo[2,1-f][1,2,4]triazin-2-ylamino]-phenyl}-piperidin-4-yl)-methanol]	< 0.1 µM	0.1 to 1 µM
c1ccc(Sc2ccc3cnc(Nc4ccc(N5CCOCC5)cc4)nn23)cc1 [Example 97, (4-Morpholin-4-yl-phenyl)-(7-phenylsulfanyl-pyrrolo[2,1-f][1,2,4]triazin-2-yl)-amine]	< 0.1 µM	0.1 to 1 µM
COc1ccccc1Sc1ccc2cnc(Nc3ccc(N4CCN(C)CC4)cc3)nn12 [Example 98, [7-(2-Methoxy-phenylsulfanyl)-pyrrolo[2,1-f][1,2,4]triazin-2-yl]-[4-(4-methyl-piperazin-1-yl)-phenyl]-amine]	< 0.1 µM	0.1 to 1 µM
CN1CCN(c2ccc(Nc3ncc4c(Br)cc(-c5ccccc5)n4n3)cc2)CC1 [Example 100, (5-Bromo-7-phenyl-pyrrolo[2,1-f][1,2,4]triazin-2-yl)-[4-(4-methyl-piperazin-1-yl)-phenyl]-amine]	< 0.1 µM	0.1 to 1 µM
COc1ccccc1-c1cc(Br)c2cnc(Nc3ccc(N4CCN(C)CC4)cc3)nn12 [Example 101, [5-Bromo-7-(2-methoxy-phenyl)-pyrrolo[2,1-f][1,2,4]triazin-2-yl]-[4-(4-methyl-piperazin-1-yl)-phenyl]-amine]	< 0.1 µM	< 0.1 µM
COc1ccccc1-c1cc(Br)n2nc(Nc3ccc(N4CCN(C)CC4)cc3)ncc12 [Example 102, [7-Bromo-5-(2-methoxy-phenyl)-pyrrolo[2,1-f][1,2,4]triazin-2-yl]-[4-(4-methyl-piperazin-1-yl)-phenyl]-amine]	1 to 10 µM	> 10 µM
C=Cc1cc(-c2ccccc2OC)n2nc(Nc3ccc(N4CCN(C)CC4)cc3)ncc12 [Example 103, [7-(2-Methoxy-phenyl)-5-vinyl-pyrrolo[2,1-f][1,2,4]triazin-2-yl]-[4-(4-methyl-piperazin-1-yl)-phenyl]-amine]	< 0.1 µM	0.1 to 1 µM
C=Cc1cc(-c2ccc(S(C)(=O)=O)cc2)n2nc(Nc3ccc(N4CCN(C)CC4)cc3)ncc12 [Example 104, [7-(4-Methanesulfonyl-phenyl)-5-vinyl-pyrrolo[2,1-f][1,2,4]triazin-2-yl]-[4-(4-methyl-piperazin-1-yl)-phenyl]-amine]	< 0.1 µM	1 to 10 µM
COc1ccccc1-c1cc(C)c2cnc(Nc3ccc(N4CCN(C)CC4)cc3)nn12 [Example 105, [7-(2-Methoxy-phenyl)-5-methyl-pyrrolo[2,1-f][1,2,4]triazin-2-yl]-[4-(4-methyl-piperazin-1-yl)-phenyl]-amine]	< 0.1 µM	< 0.1 µM
CCc1cc(-c2ccccc2OC)n2nc(Nc3ccc(N4CCN(C)CC4)cc3)ncc12 [Example 106, [5-Ethyl-7-(2-methoxy-phenyl)-pyrrolo[2,1-f][1,2,4]triazin-2-yl]-[4-(4-methyl-piperazin-1-yl)-phenyl]-amine]	< 0.1 µM	0.1 to 1 µM
Cc1cc(-c2ccc(S(C)(=O)=O)cc2)n2nc(Nc3ccc(N4CCOCC4)cc3)ncc12 [Example 107, [7-(4-Methanesulfonyl-phenyl)-5-methyl-pyrrolo[2,1-f][1,2,4]triazin-2-yl]-(4-morpholin-4-yl-phenyl)-amine]	< 0.1 µM	0.1 to 1 µM
Cc1cc(-c2ccc(S(C)(=O)=O)cc2)n2nc(Nc3ccc(N4CCN(C)CC4)cc3)ncc12 [Example 108, [7-(4-Methanesulfonyl-phenyl)-5-methyl-pyrrolo[2,1-f][1,2,4]triazin-2-yl]-[4-(4-methyl-piperazin-1-yl)-phenyl]-amine]	< 0.1 µM	0.1 to 1 µM
CCOc1ccccc1-c1ccc2cnc(Nc3ccc(N4CCN(C)CC4)cc3)nn12 [Example 109, [7-(2-Ethoxy-phenyl)-pyrrolo[2,1-f][1,2,4]triazin-2-yl]-[4-(4-methyl-piperazin-1-yl)-phenyl]-amine]	< 0.1 µM	< 0.1 µM
COc1ccccc1-c1c(Br)c(Br)c2cnc(Nc3ccc(N4CCOCC4)cc3)nn12 [Example 110, [5,6-Dibromo-7-(2-methoxy-phenyl)-pyrrolo[2,1-f][1,2,4]triazin-2-yl]-(4-morpholin-4-yl-phenyl)-amine]	< 0.1 µM	> 10 µM
O=S(=O)(c1ccccc1)c1ccc2cnc(Nc3ccc(N4CCOCC4)cc3)nn12 [Example 111, (7-Benzenesulfonyl-pyrrolo[2,1-f][1,2,4]triazin-2-yl)-(4-morpholin-4-yl-phenyl)-amine]	< 0.1 µM	0.1 to 1 µM

Compound	IC50 [1]	IC50 [2]
COc1ccccc1-c1c(C)c(C)c2cnc(Nc3ccc(N4CCOCC4)cc3)nn12 [Example 112, [7-(2-Methoxy-phenyl)-5,6-dimethyl-pyrrolo[2,1-f][1,2,4]triazin-2-yl]-(4-morpholin-4-yl-phenyl)-amine]	< 0.1 µM	0.1 to 1 µM
COCC(C)Oc1ncc2ccc(-c3ccc(S(C)(=O)=O)cc3)n2n1 (stereo not shown) [Example 113, 7-(4-Methanesulfonyl-phenyl)-2-(2-methoxy-1-methyl-ethoxy)-pyrrolo[2,1-f][1,2,4]triazine]	1 to 10 µM	> 10 µM
COc1ccccc1-c1cc(C#N)c2cnc(Nc3ccc(N4CCN(C)CC4)cc3)nn12 [Example 114, 7-(2-Methoxy-phenyl)-2-[4-(4-methyl-piperazin-1-yl)-phenylamino]-pyrrolo[2,1-f][1,2,4]triazine-5-carbonitrile]	< 0.1 µM	0.1 to 1 µM
OCCN1CCN(c2ccc(Nc3ncc4ccc(-c5cccnc5)n4n3)cc2)CC1 [Example 115, 2-{4-[4-(7-Pyridin-3-yl-pyrrolo[2,1-f][1,2,4]triazin-2-ylamino)-phenyl]-piperazin-1-yl}-ethanol]	< 0.1 µM	0.1 to 1 µM
OCC1CCN(c2ccc(Nc3ncc4ccc(-c5cccnc5)n4n3)cc2)CC1 [Example 116, {1-[4-(7-Pyridin-3-yl-pyrrolo[2,1-f][1,2,4]triazin-2-ylamino)-phenyl]-piperidin-4-yl}-methanol]	< 0.1 µM	1 to 10 µM
CS(=O)(=O)CCNC(=O)c1ccc(-c2ccc3cnc(Nc4ccc(N5CCOCC5)cc4)nn23)cc1 [Example 117, N-(2-Methanesulfonyl-ethyl)-4-[2-(4-morpholin-4-yl-phenylamino)-pyrrolo[2,1-f][1,2,4]triazin-7-yl]-benzamide]	< 0.1 µM	1 to 10 µM
CC(C)(C)NS(=O)(=O)c1cccc(-c2ccc3cnc(Nc4ccc(OCCN5CCCC5)cc4)nn23)c1 [Example 118, N-tert-Butyl-3-{2-[4-(2-pyrrolidin-1-yl-ethoxy)-phenylamino]-pyrrolo[2,1-f][1,2,4]triazin-7-yl}-benzenesulfonamide]	< 0.1 µM	0.1 to 1 µM
CN1CCN(CCOc2ccc(Nc3ncc4ccc(-c5cccnc5)n4n3)cc2)CC1 [Example 119, {4-[2-(4-Methyl-piperazin-1-yl)-ethoxy]-phenyl}-(7-pyridin-3-yl-pyrrolo[2,1-f][1,2,4]triazin-2-yl)-amine]	< 0.1 µM	0.1 to 1 µM
CN1CCN(CCCOc2ccc(Nc3ncc4ccc(-c5cccnc5)n4n3)cc2)CC1 [Example 120, {4-[3-(4-Methyl-piperazin-1-yl)-propoxy]-phenyl}-(7-pyridin-3-yl-pyrrolo[2,1-f][1,2,4]triazin-2-yl)-amine]	< 0.1 µM	0.1 to 1 µM
COc1ccccc1-c1ccc2cnc(Nc3ccc(OCCN4CCCC4)cc3)nn12 [Example 121, [7-(2-Methoxy-phenyl)-pyrrolo[2,1-f][1,2,4]triazin-2-yl]-[4-(2-pyrrolidin-1-yl-ethoxy)-phenyl]-amine]	< 0.1 µM	< 0.1 µM
COc1ccccc1-c1ccc2cnc(Nc3cc[nH]n3)nn12 [Example 122, [7-(2-Methoxy-phenyl)-pyrrolo[2,1-f][1,2,4]triazin-2-yl]-(1H-pyrazol-3-yl)-amine]	< 0.1 µM	0.1 to 1 µM
CN1CCN(c2ccc(Nc3ncc4ccc(C5CCCCC5)n4n3)cc2)CC1 [Example 123, (7-Cyclohexyl-pyrrolo[2,1-f][1,2,4]triazin-2-yl)-[4-(4-methyl-piperazin-1-yl)-phenyl]-amine]	< 0.1 µM	0.1 to 1 µM
c1cncc(-c2ccc3cnc(Nc4cc[nH]n4)nn23)c1 [Example 124, (1H-Pyrazol-3-yl)-(7-pyridin-3-yl-pyrrolo[2,1-f][1,2,4]triazin-2-yl)-amine]	< 0.1 µM	1 to 10 µM
c1cncc(-c2ccc3cnc(Nc4ccc(OCCN5CCOCC5)cc4)nn23)c1 [Example 125, [4-(2-Morpholin-4-yl-ethoxy)-phenyl]-(7-pyridin-3-yl-pyrrolo[2,1-f][1,2,4]triazin-2-yl)-amine]	< 0.1 µM	0.1 to 1 µM
c1cc(N2CCOCC2)ccc1Nc1ncc2ccc(C3CCCCC3)n2n1 [Example 127, (7-Cyclohexyl-pyrrolo[2,1-f][1,2,4]triazin-2-yl)-(4-morpholin-4-yl-phenyl)-amine]	< 0.1 µM	> 10 µM
COc1ccccc1-c1ccc2cnc(Nc3ccc(OCCN4CCOCC4)cc3)nn12 [Example 128, [7-(2-Methoxy-phenyl)-pyrrolo[2,1-f][1,2,4]triazin-2-yl]-[4-(2-morpholin-4-yl-ethoxy)-phenyl]-amine]	< 0.1 µM	< 0.1 µM

Reference: patent publication US8471005B2 (Cephalon, Inc., priority 2008, dated 2013)
